Results taken from ChEMBL document CHEMBL1133248, “Synthesis and biological activity of phenoxyphenyl oxamic acid derivatives related to L-thyronine” (Bioorg Med Chem Lett, 2000).

Tests used:
[1] = Inhibition of [125I]L-T3 binding to rat hepatic 3,5,3''-triiodo-L-thyronine receptor
Rattus norvegicus [2] = assay: Atrial tension was determined after administration to rats at 25 mg/kg for 7 days at 20 pulse/min
Rattus norvegicus [3] = assay: Atrial tension was determined after administration to rats at 100 ug/Kg for 7 days at 40 pulse/min; assay type: functional, Cardiac atrium
Rattus norvegicus [4] = assay: Heart rate was determined after administration to rats at 100 ug/Kg perorally for 7 days (in vivo on cardiovascular activity); assay type: functional
Rattus norvegicus [5] = assay: Atrial tension was determined after administration to rats at 100 ug/Kg for 7 days at 20 pulse/min; assay type: functional, Cardiac atrium
Rattus norvegicus [6] = assay: Heart weight was determined after administration to rats at 100 ug/Kg perorally for 7 days (in vivo on cardiovascular activity); assay type: functional
Rattus norvegicus [7] = assay: Heart weight was determined after administration to rats at 25 mg/kg perorally for 7 days (in vivo on cardiovascular activity)
Rattus norvegicus [8] = assay: Heart rate was determined after administration to rats at 25 mg/kg perorally for 7 days (in vivo on cardiovascular activity)
Rattus norvegicus [9] = assay: Atrial tension was determined after administration to rats at 25 mg/kg for 7 days at 40 pulse/min

Row | IC50 [1] | Compound | other results
1 | 1.9 nM | Cc1cc(NC(=O)C(=O)O)cc(C)c1Oc1ccc(O)c(-c2ccccc2)c1 | Developed tension (Rattus norvegicus [2]): 3.7%
2 | 1.9 nM | Cc1cc(NC(=O)C(=O)O)cc(C)c1Oc1ccc(O)c(-c2cccc(F)c2)c1 | 
3 | 0.64 nM | Cc1cc(NC(=O)C(=O)O)cc(C)c1Oc1ccc(O)c(-c2cccc(Cl)c2)c1 | 
4 | 0.92 nM | Cc1cc(NC(=O)C(=O)O)cc(C)c1Oc1ccc(O)c(-c2cccc(C(F)(F)F)c2)c1 | 

Second part, the molecule before the results:

Row | Compound | IC50 [1] | other results
5 | CCc1cc(Oc2c(C)cc(NC(=O)C(=O)O)cc2C)ccc1O | 0.25 nM | 
6 | N[C@@H](Cc1cc(I)c(Oc2ccc(O)c(I)c2)c(I)c1)C(=O)O [LIOTHYRONINE] |  | Developed tension (Rattus norvegicus [3]): 12.7%; Heart rate (Rattus norvegicus [4]): 52.5; Developed tension (Rattus norvegicus [5]): 18.2%; Heart weight (Rattus norvegicus [6]): 38.9
7 | Cc1cc(Oc2c(C)cc(NC(=O)C(=O)O)cc2C)ccc1O | 5.4 nM | 
8 | Cc1cc(NC(=O)C(=O)O)cc(C)c1Oc1ccc(O)c(-c2ccccc2Cl)c1 | 0.17 nM | 
9 | Cc1cc(NC(=O)C(=O)O)cc(C)c1Sc1ccc(O)c(C2CCCCC2)c1 | 2 nM | 
10 | Cc1cc(NC(=O)C(=O)O)cc(C)c1Oc1ccc(O)c(C2CCCCC2)c1 | 2.2 nM | Heart weight (Rattus norvegicus [7]): 4.4; Developed tension (Rattus norvegicus [2]): 7.6%; Heart rate (Rattus norvegicus [8]): 6.3; Developed tension (Rattus norvegicus [9]): 12.6%
11 | Cc1cc(NC(=O)C(=O)O)cc(C)c1S(=O)(=O)c1ccc(O)c(C2CCCCC2)c1 | 1.9 nM | 
12 | Cc1cc(NC(=O)C(=O)O)cc(C)c1Oc1cccc(-c2ccccc2)c1 | 32 nM | 
13 | Cc1cc(NC(=O)C(=O)O)cc(C)c1Oc1ccc(O)c(-c2ccc(C(F)(F)F)cc2)c1 | 14 nM | 
14 | Cc1ccc(-c2cc(Oc3c(C)cc(NC(=O)C(=O)O)cc3C)ccc2O)cc1 | 9 nM | 
